# Experimental data taken from patent US7304046B2, “Phosphoramide compounds” (priority 1999, dated 2007).
# Read-outs that look alike come from different tables or passages of the source.
# Tests used:
# MDA231 (breast) = assay: Growth inhibition, MTT assay, MDA231; type: cell-based, human; settings: read-out: IC50 growth inhibitory activity
# Experimental: (§1) The growth inhibitory properties of representative compounds of the invention were also determined by evaluating their growth inhibitory activity against a series of human tumor cell lines using a 72-h drug exposure. Cell counts were measured using the MTT assay.
# PC-3 (prostate) = assay: Growth inhibition, MTT assay, PC-3; type: cell-based, human; settings: PC-3, 72-h drug exposure, read-out: IC50 growth inhibitory activity
# Experimental: as §1
# HT-29 (colon) = assay: Growth inhibition, MTT assay, HT-29; type: cell-based, human; settings: HT-29, 72-h drug exposure, read-out: IC50 growth inhibitory activity
# Experimental: as §1
# PaCa-2 (pancreas) = assay: Growth inhibition, MTT assay, PaCa-2; type: cell-based, human; settings: PaCa-2, 72-h drug exposure; for IC50: read-out: IC50 growth inhibitory activity
# Experimental: as §1
# A498 (kidney) = assay: Growth inhibition, MTT assay, A498; type: cell-based, human; settings: A498, 72-h drug exposure, read-out: IC50 growth inhibitory activity
# Experimental: as §1
# A549 (lung) = assay: Growth inhibition, MTT assay, A549; type: cell-based, human; settings: A549, 72-h drug exposure, read-out: IC50 growth inhibitory activity
# Experimental: as §1
# UMUC3 (bladder) = assay: Growth inhibition, MTT assay, UMUC3; type: cell-based, human; settings: UMUC3, 72-h drug exposure; for IC50: read-out: IC50 growth inhibitory activity
# Experimental: as §1
# IGROV (ovarian) = assay: Growth inhibition, MTT assay, IGROV; type: cell-based, human; settings: 72-h drug exposure, read-out: IC50 growth inhibitory activity
# Experimental: as §1
# HT-29 cells = assay: Test A: in vitro cytotoxicity, clonogenic survival of HT-29 cells; type: cell-based, human; settings: 2 h drug treatment, colonies after 10 days, concentration at which there is a 1% cell survival
# Excerpt: (§2) Test A: In Vitro Cytotoxicity (Clonogenic Survival of HT-29 and BE Cells):
# (§3) The human colon carcinoma cell line HT-29 was obtained from the American Type Culture Collection (ATCC), and the BE cell line was provided by Dr. D. Ross, University of Colorado. A modification of the procedure described by Miribelli et al Cancer Research, 1985, 45, 32–39 was used to determine the clonogenic survival of the cells. HT-29 and BE cells in exponential growth were suspended in unsupplemented Eagles MEM medium (10 mL) at a final density of 1.7–2×10^5 cells/mL. Unsupplemented medium contains Minimum Essential Medium (Gibco) and HEPES (0.02 M). The drug stock solutions (0.1–40 mM) were prepared using either ethanol or dimethyl sulfoxide as solvent. The maximum amount of DMSO or ethanol used in the drug treatments was 1% of the total volume. Appropriate volumes (6.5 to 100 μL) of the drug stock solution were added to five vials of the cell suspensions, to give five different final drug concentrations, and 100 μL of solvent was added to a sixth vial for a control. The treated cells were incubated for 2 h (37° C., 5% CO2). The cells were spun down and rinsed three times with supplemented medium (3 mL) and then diluted in 5 mL of supplemented medium. Supplemented medium is prepared by adding Fetal Bovine Serum (10%), gentamicin (0.05 mg/mL), L-glutamine (0.03 mg/mL), and sodium pyruvate (0.1 mM) to unsupplemented medium. The cells were counted using a Coulter Counter and then plated at 2–3 different densities for each drug concentration and incubated for 10 days. The colonies were stained with 0.5% crystal violet in 95% ethanol and those colonies comprised of 50 or more cells were counted using a microscope and pen-style counter. The LC99 of each compound (the concentration at which there is a 1% cell survival) was determined by plotting the log surviving fraction vs. drug concentration.
# BE cells = assay: Test A: in vitro cytotoxicity, clonogenic survival of BE cells; type: cell-based; settings: 2 h drug treatment, colonies after 10 days, concentration at which there is a 1% cell survival
# Excerpt: as §2, §3
# [1] = Releasing group activity: chemical reduction with sodium dithionite monitored by 31P NMR; type: physicochemical; settings: sodium dithionite 3 equiv, 3:4 CH3CN:0.4 M cacodylate buffer, pH ~7.4, 37° C.
# Experimental: (§4) The quinone was dissolved in CH3CN (0.3 mL, or THF for 16a) and the activating agent (glutathione, or sodium dithionite) was dissolved in cacodylate buffer (0.4 mL, 0.4 M, pH 7.7). The buffer solution was added to the organic solution and the pH of the mixture was adjusted to ˜7.4. The reaction mixture was transferred to a 5-mm NMR tube, and the data acquisition was started (pulse delay 30 μs). Spectra were taken every 2.5 minutes for 0.5 h, then every 5 min for 0.5 h, then every 10 min for 1 h, and time points for each spectrum were assigned from the initiation of the reaction. Chemical shifts are reported relative to the TPPO reference. The temperature of the probe was maintained at 37° C., if necessary, using the Bruker variable temperature unit. The relative concentrations of the intermediates were determined by measuring the peak areas.
# Naphthoquinone 15a was reduced with sodium dithionite (3 equiv, 3:4 CH3CN:0.4 M cacodylate buffer, pH˜7.4, 37° C.), and the reaction was followed by ^31P NMR. The resonance for quinone […] at −5.3 ppm disappeared within 5 minutes and was replaced by the resonance for the corresponding phosphoramide mustard at −12.2 ppm.
# [2] = Activation by glutathione monitored by 31P NMR; type: physicochemical
# Experimental: as §4
# Thus, the following study was conducted to determine whether glutathione would activate compounds of formula I in a similar way. Glutathione, the primary non-protein intracellular thiol, is responsible for maintaining the cellular redox environment and removing potential electrophilic cytotoxins. […] Thus, the reaction of 15a with glutathione (3 equiv, 1:1.3 CH3CN:0.4 M cacodylate buffer, pH˜7.5, RT) was monitored by ^31P NMR.
# human tumor cell lines = assay: Growth inhibition, MTT assay, series of human tumor cell lines (all cell lines); type: cell-based; settings: all cell lines of Table 2, 72-h drug exposure
# Experimental: as §1
# [3] = Homo sapiens, MDA-MB-231, MDA231, 72-h drug exposure
compound,measurement,setting,value
"3-(5-Methoxy-1-methyl-4,7-indolequinonyl)methyl N,N-bis(2-bromoethyl)phosphorodiamidate [Compound 4]",IC50,"MDA231 (breast); MDA231, 72-h drug exposure",194 nM
same,IC50,PC-3 (prostate),649 nM
same,IC50,HT-29 (colon),241 nM
same,IC50,PaCa-2 (pancreas),215 nM
same,IC50,A498 (kidney),998 nM
same,IC50,A549 (lung),398 nM
same,IC50,UMUC3 (bladder),10 nM
"COC1=CC(=O)c2c(cc(COP(=O)(N(C)CCBr)N(C)CCBr)n2C)C1=O [Compound 5, 2-(5-Methoxy-1-methyl-4,7-indolequinonyl)methyl bis[N-methyl-N-(2-bromoethyl)]phosphorodiamidate]",IC50,IGROV (ovarian); Homo sapiens,7590 nM
same,IC50,MDA231 (breast); [3],210 nM
same,IC50,PC-3 (prostate); Homo sapiens,420 nM
same,IC50,HT-29 (colon); Homo sapiens,93 nM
same,IC50,PaCa-2 (pancreas); Homo sapiens,13 nM
same,IC50 values in words,PaCa-2 (pancreas),low nanomolar range
same,IC50,A498 (kidney); Homo sapiens,2650 nM
same,IC50,A549 (lung); Homo sapiens,260 nM
same,IC50,UMUC3 (bladder); Homo sapiens,14 nM
same,IC50 values in words,UMUC3 (bladder),low nanomolar range
"COC1=CC(=O)c2c(cc(COP(N)(=O)N(CCCl)CCCl)n2C)C1=O (stereo not shown) [Compound 6a, 2-(5-Methoxy-1-methyl-4,7-indolequinonyl)methyl N,N-bis(2-chloroethyl)phosphorodiamidate]",IC50,IGROV (ovarian),1700 nM
same,IC50,"MDA231 (breast); MDA231, 72-h drug exposure",3500 nM
same,IC50,PC-3 (prostate),170 nM
same,IC50,HT-29 (colon),340 nM
same,IC50 values in words,PaCa-2 (pancreas),low nanomolar range
same,IC50,PaCa-2 (pancreas),6 nM
same,IC50,A498 (kidney),862 nM
same,IC50,A549 (lung),203 nM
same,IC50 values in words,UMUC3 (bladder),low nanomolar range
same,IC50,UMUC3 (bladder),22 nM
"COC1=CC(=O)c2c(cc(COP(N)(=O)N(CCBr)CCBr)n2C)C1=O (stereo not shown) [Compound 6b, 2-(5-Methoxy-1-methyl-4,7-indolequinonyl)methyl N,N-bis(2-bromoethyl)phosphorodiamidate]",IC50,IGROV (ovarian),1470 nM
same,IC50,"MDA231 (breast); MDA231, 72-h drug exposure",1630 nM
same,IC50,PC-3 (prostate),195 nM
same,IC50,HT-29 (colon),61 nM
same,IC50 values in words,PaCa-2 (pancreas),low nanomolar range
same,IC50,PaCa-2 (pancreas),35 nM
same,IC50,A498 (kidney),199 nM
same,IC50,A549 (lung),9 nM
same,IC50 values in words,UMUC3 (bladder),low nanomolar range
same,IC50,UMUC3 (bladder),1 nM
"NP(=O)(OCC1=CC(=O)c2ccccc2C1=O)N(CCCl)CCCl (stereo not shown) [Compound 15a, 2-(1,4-Naphthoquinonyl)methyl N,N-bis(2-chloroethyl) phosphorodiamidate]",LC99,HT-29 cells,11 µM
same,LC99,BE cells,13 µM
same,time until quinone resonance disappeared and was replaced by phosphoramide mustard resonance,[1],≤ 5 min
same,time until quinone resonance disappeared and was replaced by phosphorodiamidate anion resonance,"[2]; glutathione 3 equiv, 1:1.3 CH3CN:0.4 M cacodylate buffer, pH ~7.5, RT",≤ 4 min
same,"activation with one equivalent of glutathione, in words","[2]; only one equivalent of glutathione, compared with 3 equiv",essentially identical
"CC1=C(COP(N)(=O)N(CCCl)CCCl)C(=O)c2ccccc2C1=O (stereo not shown) [Compound 15b, 2-(3-Methyl-1,4-naphthoquinonyl)methyl N,N-bis(2-chloroethyl) phosphorodiamidate]",LC99,HT-29 cells,2.1 µM
same,LC99,BE cells,1.0 µM
"CSC1=C(COP(N)(=O)N(CCCl)CCCl)C(=O)c2ccccc2C1=O (stereo not shown) [Compound 15c, 2-(3-Thiomethyl-1,4-naphthoquinonyl)methyl N,N-bis(2-chloroethyl)phosphorodiamidate]",LC99,HT-29 cells,4.2 µM
same,LC99,BE cells,5.9 µM
"NP(=O)(OCC1=C(Br)C(=O)c2ccccc2C1=O)N(CCCl)CCCl (stereo not shown) [Compound 15d, 2-(3-Bromo-1,4-naphthoquinonyl)methyl N,N-bis(2-chloroethyl)phosphorodiamidate]",LC99,HT-29 cells,4.1 µM
same,LC99,BE cells,3.3 µM
"CC1=C(COP(N)(=O)N(CCBr)CCBr)C(=O)c2ccccc2C1=O (stereo not shown) [Compound 16b, 2-(3-Methyl-1,4-naphthoquinonyl)methyl N,N-bis(2-bromoethyl) phosphorodiamidate]",LC99,HT-29 cells,1.7 µM
same,LC99,BE cells,1.2 µM
"O=C1C=C(COP(=O)(NCCCl)NCCCl)C(=O)c2ccccc21 [Compound 17, 2-(1,4-Naphthoquinonyl)methyl bis[N-(2-chloroethyl)] phosphorodiamidate]",LC99,HT-29 cells,14 µM
same,LC99,BE cells,7.8 µM
"CN(CCBr)P(=O)(OCC1=CC(=O)c2ccccc2C1=O)N(C)CCBr [Compound 40a, 2-(1,4-Naphthoquinonyl)methyl bis[N-methyl-N-(2-bromoethyl)]phosphorodiamidate]",LC99,HT-29 cells,4.5 µM
same,LC99,BE cells,1.2 µM
same,IC50,IGROV (ovarian),2050 nM
same,IC50,"MDA231 (breast); MDA231, 72-h drug exposure",3230 nM
same,IC50,PC-3 (prostate),2560 nM
same,IC50,HT-29 (colon),5920 nM
same,IC50,PaCa-2 (pancreas),2300 nM
same,IC50,A498 (kidney),4460 nM
same,IC50,A549 (lung),11200 nM
same,IC50,UMUC3 (bladder),9950 nM
same,"IC50 in words, against all cell lines",human tumor cell lines,low micromolar range
"CC1=C(COP(=O)(N(C)CCBr)N(C)CCBr)C(=O)c2ccccc2C1=O [Compound 40b, 2-(3-Methyl-1,4-naphthoquinonyl)methyl bis[N-methyl-N-(2-bromoethyl)] phosphorodiamidate]",LC99,HT-29 cells,1.5 µM
same,LC99,BE cells,0.44 µM
"CN(CCCl)P(=O)(OCC1=CC(=O)c2ccccc2C1=O)N(C)CCCl [Compound 40c, 2-(1,4-Naphthoquinonyl)methyl bis[N-methyl-N-(2-chloroethyl)]phosphorodiamidate]",LC99,HT-29 cells,4.5 µM
same,LC99,BE cells,2.8 µM
"COC1=CC(=O)c2c(c(COP(=O)(N(C)CCBr)N(C)CCBr)cn2C)C1=O [Compound 47, 3-(5-Methoxy-1-methyl-4,7-indolequinonyl)-methyl bis[N-methyl-N-(2-bromoethyl)] phosphorodiamidate]",LC99,HT-29 cells,0.07 µM
same,LC99,BE cells,0.14 µM
same,IC50,IGROV (ovarian); Homo sapiens,494 nM
same,IC50,MDA231 (breast); [3],40 nM
same,IC50,PC-3 (prostate); Homo sapiens,66 nM
same,IC50,HT-29 (colon); Homo sapiens,65 nM
same,IC50,PaCa-2 (pancreas); Homo sapiens,25 nM
same,IC50 values in words,PaCa-2 (pancreas),low nanomolar range
same,IC50,A498 (kidney); Homo sapiens,344 nM
same,IC50,A549 (lung); Homo sapiens,23 nM
same,IC50,UMUC3 (bladder); Homo sapiens,2 nM
same,IC50 values in words,UMUC3 (bladder),low nanomolar range
